# Measured values: the C3SDB collision cross section collection
# “And” between values parts separate entries of the source, which are not always exact repeats. Identical values can stand only once.
# Details: [M+H-H2O]+; instrument: TW; calibrated with polyalanine and drug standards
row,collision cross section (N2) [Å²],Structure (SMILES)
1,163.9,O=C(N[C@H](CO)[C@H](O)c1ccc([N+](=O)[O-])cc1)C(Cl)Cl [CHLORAMPHENICOL]
2,166.7,NS(=O)(=O)c1cc(C2(O)NC(=O)c3ccccc32)ccc1Cl (stereo not given) [CHLORTHALIDONE]

# Same assay, conditions: [M+H]+; instrument: TW; calibrated with polyalanine and drug standards
row,collision cross section (N2),Structure (SMILES)
1,208.3 Å²,"CC(C)CCC[C@@H](C)[C@H]1CC[C@H]2[C@@H]3C=CC4=CC(=O)CC[C@]4(C)[C@H]3CC[C@]12C [CHOLESTA-4,6-DIEN-3-ONE]"
2,130 Å²,CC(C)=CC1C(C(=O)O)C1(C)C (stereo not given) [CHRYSANTHEMIC ACID]
3,154.3 Å²,O=C(O)c1cc(-c2ccccc2)nc2ccccc12 [CINCHOPHEN]
4,148.5 Å²,CCn1nc(C(=O)O)c(=O)c2cc3c(cc21)OCO3 [CINOXACIN]
5,138.3 Å²,COc1cc(OC)c2ccc(=O)oc2c1 [CITROPTEN]
6,138.2 Å²,Oc1c(I)cc(Cl)c2cccnc12 [CLIOQUINOL]
7,131.2 Å²,Cc1[nH]c(C)c(Cl)c(=O)c1Cl [CLOPIDOL]
8,177.5 Å²,CN1CCN(C2=c3ccccc3=Nc3ccc(Cl)cc3N2)CC1 [CLOZAPINE]
9,196.5 Å²,CC(=O)OCC(=O)[C@@]1(O)CC[C@H]2[C@@H]3CCC4=CC(=O)CC[C@]4(C)[C@H]3C(=O)C[C@@]21C [CORTISONE ACETATE]
10,122.2 Å²,O=c1ccc2ccccc2o1 [COUMARIN]
11,145.1 Å²,C/C=C/C(=O)N(CC)c1ccccc1C [CROTAMITON]
12,221.3 Å²,CC(C)(O)CC[C@@H](O)[C@](C)(O)[C@H]1CC[C@@]2(O)C3=CC(=O)[C@@H]4C[C@@H](O)[C@@H](O)C[C@]4(C)[C@H]3CC[C@]12C [CRUSTECDYSONE]
13,198.5 Å²,COc1cc(/C=C/C(=O)CC(=O)/C=C/c2ccc(O)c(OC)c2)ccc1O [CURCUMIN]
14,164.8 Å²,CN1CCN(C(c2ccccc2)c2ccccc2)CC1 [CYCLIZINE]
15,124.3 Å²,NC1=NCCN1CC(=O)O [CYCLOCREATINE]
16,199.4 Å²,CC(=O)O[C@]1(C(C)=O)CC[C@H]2[C@@H]3C=C(Cl)C4=CC(=O)[C@@H]5C[C@@H]5[C@]4(C)[C@H]3CC[C@@]21C [CYPROTERONE ACETATE]
17,150.5 Å²,Nc1ccn([C@@H]2O[C@H](CO)[C@@H](O)[C@@H]2O)c(=O)n1 [CYTARABINE]
18,222.9 Å²,COc1cccc2c1C(=O)c1c(O)c3c(c(O)c1C2=O)C[C@@](O)(C(C)=O)C[C@@H]3O[C@H]1C[C@H](N)[C@H](O)[C@H](C)O1 [DAUNORUBICIN]
19,159 Å²,COc1ccc2c(c1)OCc1c-2oc2cc(OC)ccc12 [DEHYDROVARIABILIN]
20,171.2 Å²,"COc1ccc2c(c1)OCC(Cc1ccc(O)c(OC)c1)C2=O (stereo not given) [DEOXYSAPPANONE B 7,3'-DIMETHYL ETHER]"
21,170.6 Å²,"COc1ccc2c(c1)OCC(Cc1ccc(OC)c(O)c1)C2=O (stereo not given) [DEOXYSAPPANONE B 7,4'-DIMETHYL ETHER]"
22,189.9 Å²,COc1ccc(-c2cc(C(F)F)nn2-c2ccc(S(N)(=O)=O)cc2)cc1F [DERACOXIB]
23,176.7 Å²,COc1cc(OC)c2c(OC)c(-c3ccc4c(c3)OCO4)c(=O)oc2c1 [DERRUSNIN]
24,198.5 Å²,CC1(C)O[C@@H]2C[C@H]3[C@@H]4CCC5=CC(=O)C=C[C@]5(C)[C@H]4[C@@H](O)C[C@]3(C)[C@]2(C(=O)CO)O1 [DESONIDE]
25,193.8 Å²,CC(=O)OCC(=O)[C@H]1CC[C@H]2[C@@H]3CCC4=CC(=O)CC[C@]4(C)[C@H]3CC[C@]12C [DESOXYCORTICOSTERONE ACETATE]
26,186.4 Å²,CC1CC2C3CCC4=CC(=O)C=CC4(C)C3(F)C(O)CC2(C)C1C(=O)CO (stereo not given) [DESOXYMETASONE]
27,126.9 Å²,C=CCSSSCC=C [DIALLYL TRISULFIDE]

# Continued, compound first:
row,Structure (SMILES),collision cross section (N2)
1,CCCC1O[C@@H]2C[C@H]3[C@@H]4CCC5=CC(=O)C=C[C@]5(C)[C@H]4[C@@H](O)C[C@]3(C)[C@]2(C(=O)CO)O1 (stereo not given in full) [BUDESONIDE],204.6 Å²
2,CC1=CC2C(C(C)C)CCC(C)(O)C2CC1 (stereo not given) [CADIN-4-EN-10-OL],145.9 Å²
3,CC(=O)OCC1(O)CC23CCC4c5ccoc5CCC4(C)C2CCC1C3 (stereo not given) [CAFESTOL ACETATE],169.3 Å²
4,NC(N)=NOCC[C@H](N)C(=O)O [CANAVANINE],133.3 Å²
5,NC(=O)N1c2ccccc2C=Cc2ccccc21 [CARBAMAZEPINE],149 Å²
6,C[C@@](Cc1ccc(O)c(O)c1)(NN)C(=O)O [CARBIDOPA],142.4 Å²
7,C=CC1=C(C(=O)O)N2C(=O)[C@@H](NC(=O)/C(=N\O)c3csc(N)n3)[C@H]2SC1 [CEFDINIR],190.5 Å²
8,CO/N=C(\C(=O)N[C@@H]1C(=O)N2C(C(=O)OCOC(=O)C(C)(C)C)=C(/C=C\c3scnc3C)CS[C@H]12)c1csc(N)n1 [CEFDITORIN PIVOXIL],238 Å²
9,COCC1=C(C(=O)OC(C)OC(=O)OC(C)C)N2C(=O)[C@@H](NC(=O)/C(=N\OC)c3csc(N)n3)[C@H]2SC1 (stereo not given in full) [CEFPODOXIME PROXETIL],235.4 Å² and 228.3 Å²
10,OC[C@@H](O)[C@H]1O[C@@H]2O[C@H](C(Cl)(Cl)Cl)O[C@@H]2[C@H]1O [CHLORALOSE],163.2 Å²
11,NS(=O)(=O)c1cc2c(cc1Cl)NC=NS2(=O)=O [CHLOROTHIAZIDE],161 Å²
12,Oc1c(Cl)cc(Cl)c2cccnc12 [CHLOROXINE],134.3 Å²
13,CCOP(=S)(OCC)Oc1nc(Cl)c(Cl)cc1Cl [CHLORPYRIFOS],201.7 Å²
14,COc1cc2c(c(OC)c1OC)-c1ccc(OC)c(=O)cc1[C@@H](NC(C)=O)CC2 [COLCHICINE],194.5 Å²
15,O=c1cccc2n1C[C@@H]1CNC[C@H]2C1 [CYTISINE],137.9 Å²
16,CC(=O)O[C@H]1C[C@@H](OC(C)=O)C(C)(C)C2CC(=O)[C@]3(C)C(CC[C@@]4(C)[C@H](C(=O)O)OC(=O)C5OC543)[C@]21C (stereo not given in full) [DEACETOXY(7)-7-OXOKHIVORINIC ACID],212.6 Å²
17,COc1cc2c(cc1OC)-c1c(oc3c4c(ccc3c1=O)OC(C(C)C)C4)CO2 (stereo not given) [DEHYDRODIHYDROROTENONE],194.6 Å²

# Same assay, conditions: [M+Na]+; instrument: TW; calibrated with polyalanine and drug standards
row,collision cross section (N2) [Å²],Structure (SMILES)
1,211,CCCCCCCCCCCCCCC(C(=O)O)C(O)(CC(=O)OC)C(=O)O (stereo not given) [CAPERATIC ACID]
2,195.6,C[C@H](CCC(=O)O)[C@H]1CC[C@H]2[C@@H]3[C@H](O)C[C@@H]4C[C@H](O)CC[C@]4(C)[C@H]3C[C@H](O)[C@]12C [CHOLIC ACID]
3,186.2,CC1CC(OC(=O)C(O)c2ccccc2)CC(C)(C)C1 (stereo not given) [CYCLANDELATE]
4,185.6,C=C[C@@]1(C)CC(=O)[C@@]2(O)[C@](C)(O1)[C@@H](O)[C@@H](O)C1C(C)(C)CC[C@H](O)[C@@]12C (stereo not given in full) [DESACETYLCOLFORSIN]
